Laboratory results reported in patent publication US20110130397A1, “PYRROLINONE COMPOUNDS AS INHIBITORS OF BACTERIAL PEPTIDYL TRNA HYDROLASE AND USES THEREOF” (priority 2006, published 2011).

How the values were obtained:
[1] = Cytotoxicity (CellTiter 96 Aqueous Non-Radioactive Cell Proliferation Assay); type: cell-based; conditions: human, Huh7 cells
Protocol: Novel antibacterial peptidyl tRNA hydrolase inhibitors were identified using the MIC assay (inhibition ranged from 32-100%). The inhibitors were also bacteria specific, as evidenced by the low cytotoxicity observed for the human Huh7 cells (FIG. 4). Cytotoxicity was determined according to manufacturer's directions (CellTiter 96 Aqueous Non-Radioactive Cell Proliferation Assay, Promega).
Further data for representative compounds is set forth in Table 1 (MIC and cytotoxicity). Compounds were tested against S. aureus (ATCC 29213) and E. coli (BAS849—permeable) in the MIC assays. Certain compounds were also tested against other bacteria, including S. epidermis (ATCC 12228), E. faecium (ATCC 49624), and E. faecalis (ATCC 29212). Cytotoxicity was determined using Hu7 cells and Hep G2 cells. The MIC and cytotoxicity assays were performed as described above.

Compound | CC50 [1] | melting point
CCOC(=O)c1sc(N2C(=O)C(O)=C(C(=O)c3ccc(F)cc3)C2c2cccs2)nc1C (stereo not drawn) [Compound 40] | 62.9 µM | –
CCOc1cc(C2C(C(=O)c3cc4ccccc4o3)=C(O)C(=O)N2c2nc3c(C)cc(C)cc3s2)ccc1O (stereo not drawn) [Compound 4] | 53.4 µM | –
COc1ccc(C(=O)C2=C(O)C(=O)N(c3nccs3)C2c2ccc(Cl)cc2)cc1C (stereo not drawn) [Compound 44] | 51.5 µM | –
CCOc1cc(C2C(C(=O)c3cc4ccccc4o3)=C(O)C(=O)N2c2nnc(SCc3ccccc3F)s2)ccc1O (stereo not drawn) [Compound 3] | > 83 µM | –
O=C(C1=C(O)C(=O)N(c2nnc(SCc3ccc(F)cc3)s2)C1c1cccc(O)c1)c1cc2ccccc2o1 (stereo not drawn) [Compound 15] | > 89 µM | –
COC(=O)c1sc(N2C(=O)C(O)=C(C(=O)c3ccc(F)cc3)C2c2ccc(F)cc2)nc1C (stereo not drawn) [Compound 31] | 46.5 µM | –
COc1cc(C2C(C(=O)c3cc4ccccc4o3)=C(O)C(=O)N2c2nc(C)c(C(C)=O)s2)ccc1OCc1ccccc1 (stereo not drawn) [Compound 11] | > 84 µM | –
CCOc1cc(C2C(C(=O)c3cc4ccccc4o3)=C(O)C(=O)N2c2nc(C)c(C(C)=O)s2)ccc1O (stereo not drawn) [Compound 13] | 59.8 µM | –
CCc1ccc2nc(N3C(=O)C(O)=C(C(=O)c4ccccc4)C3c3ccco3)sc2c1 (stereo not drawn) [Compound 119] | 10.8 µM | –
Cc1nc(C)c(C(=O)C2=C(O)C(=O)N(c3nc4ccc(Cl)cc4s3)C2c2cccs2)s1 (stereo not drawn) [Compound 49] | > 111 µM | –
O=C(C1=C(O)C(=O)N(c2nnc(SCc3ccc(Cl)cc3)s2)C1c1cccc(O)c1)c1cc2ccccc2o1 (stereo not drawn) [Compound 12] | > 87 µM | –
CCOc1cc(C2C(C(=O)c3cc4ccccc4o3)=C(O)C(=O)N2c2nnc(SCc3cccc4ccccc34)s2)ccc1O (stereo not drawn) [Compound 2] | > 79 µM | –
CCOc1ccc2nc(N3C(=O)C(O)=C(C(=O)c4ccc(C)o4)C3c3cccc(F)c3)sc2c1 (stereo not drawn) [Compound 222] | – | 248 to 249 °C
O=C(COc1ccccc1)C1=C(O)C(=O)N(c2nc3c(Cl)cccc3s2)C1c1ccc(F)cc1 (stereo not drawn) [Compound 450] | – | 204 to 206 °C
O=C(C1=C(O)C(=O)N(c2nc3ccc(F)cc3s2)C1c1ccccc1F)c1nccs1 (stereo not drawn) [Compound 437] | – | 298 to 299 °C
Cc1ccc(C(=O)C2=C(O)C(=O)N(c3nc4ccc(Cl)cc4s3)C2c2cccc(F)c2F)o1 (stereo not drawn) [Compound 623] | – | 253 to 254 °C
O=C(COc1ccccc1)C1=C(O)C(=O)N(c2nc3ccc(Cl)cc3s2)C1c1ccc(F)cc1 (stereo not drawn) [Compound 447] | – | 203 to 204 °C
COCCOc1ccc(CCC(=O)C2=C(O)C(=O)N(c3nc4ccc(Cl)cc4s3)C2c2ccc(F)cc2)cc1 (stereo not drawn) [Compound 576] | – | 226 to 227 °C
CCOc1ccc2nc(N3C(=O)C(O)=C(C(=O)c4ccc(C)o4)C3C3CCOC3)sc2c1 (stereo not drawn) [Compound 190] | – | 185 to 186 °C
O=C(C1=C(O)C(=O)N(c2nc3c(Cl)cccc3s2)C1c1ccc(F)cc1)C1CCC1 (stereo not drawn) [Compound 574] | – | 232 to 233 °C
O=C(O)CCC(=O)C1=C(O)C(=O)N(c2nc3ccc(Cl)cc3s2)C1c1ccc(F)cc1 (stereo not drawn) [Compound 569] | – | 262 to 263 °C
Cc1ccc(C(=O)C2=C(O)C(=O)N(c3ncnc4[nH]ncc34)C2c2cccc([N+](=O)[O-])c2)o1 (stereo not drawn) [Compound 225] | – | 222 to 223 °C
Cc1ccc(C(=O)C2=C(O)C(=O)N(c3nc4ccc(Cl)cc4s3)C2c2cccc([N+](=O)[O-])c2)o1 (stereo not drawn) [Compound 139] | – | > 300 °C
COc1ccc2nc(N3C(=O)C(O)=C(C(=O)c4ccc(C)o4)C3c3cccnc3)sc2c1 (stereo not drawn) [Compound 158] | – | 291 to 292 °C
Cc1ccc(C(=O)C2=C(O)C(=O)N(c3nc4ccc(F)cc4s3)C2c2ccc3ccccc3c2)o1 (stereo not drawn) [Compound 600] | – | 254 to 256 °C
Cc1ccc(C(=O)C2=C(O)C(=O)N(c3nc4ccc(S(C)(=O)=O)cc4s3)C2C2CCOC2)o1 (stereo not drawn) [Compound 180] | – | 199 to 200 °C
CCc1ccc2nc(N3C(=O)C(O)=C(C(=O)c4ccc(C)o4)C3c3ccc(Cl)cc3)sc2c1 (stereo not drawn) [Compound 133] | – | 236 to 238 °C
